According to patent US12213984B2, “Immunoregulatory agent” (KYUSHU UNIVERSITY, NATIONAL UNIVERSITY CORPORATION, priority 2015, dated 2025):

Experiments:
[1] = test system: inflammatory cells infiltrating into the conjunctiva; assay: ragweed pollen-induced conjunctivitis model in Sult2B1b gene knockout mice, application to the eyes; type: in vivo, mouse; details: applied into the eyes before and after topical challenge
Procedure: An examination was performed on conjunctivitis models induced by sensitizing Sult2B1b gene hetero-type mice (+/−) and Sult2B1b gene knockout mice (−/−) with ragweed pollen and topically challenged with the same antigen at 10 and 12 days later. The eyeball section of each category of the mice was subjected to hematoxylin-eosin (HE) staining and observed using an optical microscope. Thereafter, the Sult2B1b gene knockout mice (−/−) were exposed to ragweed pollen, and cholesterol 3-sulfate was applied into the eyes of the mice before and after the topical challenge with ragweed pollen. […] As a control, a mouse for whom only a vehicle was applied into its eyes was used.

[2] = test system: T cells (mouse spleen cells); assay: lymphocyte migration assay using transwell (CCL21); type: cell-based; details: CCL21 300 ng/mL
Procedure: The influence of cholesterol 3-sulfate on the migration of T cells was examined. As a control, an experiment using T cells derived from a DOCK2 knockout mouse was also performed. More specifically, first, mouse spleen cells (1×10^7 cells/mL) were cultured for 1 hour at 37° C. in 0.5% BSA-containing RPMI-1640 (transwell medium) in the presence of cholesterol 3-sulfate at a predetermined concentration or in the presence of DMSO alone (control). The concentration of DMSO was adjusted such that the final concentration of DMSO became 0.2% in all samples. Then, a transwell medium containing chemokine CCL21 (300 ng/mL) and cholesterol 3-sulfate at a predetermined concentration was added to a 24-well plate, and then a transwell (with 5 μm pores, Corning) was set in the well so as to load the pre-cultured cells (1×10^6 cells/100 μL). Subsequently, the cells were incubated for 2 hours at 37° C., and the cells that moved to the lower chamber were collected and stained with PE-labeled anti Thy1.2-antibody (“53-2-1” model, BD Pharmingen). By dividing the number of Thy1.2-positive cells (T cells) in the lower chamber by the number of Thy1.2-positive cells (T cells) put into the transwell, the proportion of T cells having moved (migration of T cells (%)) was calculated. More specifically, first, mouse spleen cells (1×10^7 cells/mL) were cultured for 1 hour at 37° C. in 0.5% BSA-containing RPMI-1640 (transwell medium) in the presence of various steroid compounds at the concentration of 12.5 μM or in the presence of DMSO alone (control). The concentration of DMSO was adjusted such that the final concentration of DMSO became 0.2% in all samples. Then, by performing the transwell assay as described above, the effects of various steroid compounds on the migratory responses of T cells to CCL21 (300 ng/mL) were examined by comparison.

[3] = test system: neutrophils derived from the mouse bone marrow; assay: neutrophil migration assay 2 (EZ-TAXIScan, compound added to the fMLP source); type: cell-based; details: 150 μM added to well with 3 μM fMLP, no pretreatment
Procedure: An examination was performed about the influence of cholesterol 3-sulfate on the migration speed of neutrophils when the cells and the chemical migration factor (fMLP) are added to the same well without pretreating the cells. […] Phase-contrast micrographs were obtained for 40 minutes at an interval of 30 seconds and analyzed by the same method as described above. (a) to (c) of FIG. 12 are graphs and photographs showing the experiment results.

[4] = biological target: T1, binding of the DHR-2 domain of DOCK2 to Rac (Homo sapiens, UniProt Q92608); assay: pull-down assay using GST-Rac beads, binding of DOCK2 DHR-2 to Rac; details: 150 μM
T1 construct: 1 μg of a protein composed of the lobe B and the lobe C of the DHR-2 domain of DOCK2; made in house; host or cells: E. coli Arctic express DE3 (DOCK2 fragment); E. coli BL21 DE3 (GST-Rac)
T1 sequence (Q92608 1196-1622): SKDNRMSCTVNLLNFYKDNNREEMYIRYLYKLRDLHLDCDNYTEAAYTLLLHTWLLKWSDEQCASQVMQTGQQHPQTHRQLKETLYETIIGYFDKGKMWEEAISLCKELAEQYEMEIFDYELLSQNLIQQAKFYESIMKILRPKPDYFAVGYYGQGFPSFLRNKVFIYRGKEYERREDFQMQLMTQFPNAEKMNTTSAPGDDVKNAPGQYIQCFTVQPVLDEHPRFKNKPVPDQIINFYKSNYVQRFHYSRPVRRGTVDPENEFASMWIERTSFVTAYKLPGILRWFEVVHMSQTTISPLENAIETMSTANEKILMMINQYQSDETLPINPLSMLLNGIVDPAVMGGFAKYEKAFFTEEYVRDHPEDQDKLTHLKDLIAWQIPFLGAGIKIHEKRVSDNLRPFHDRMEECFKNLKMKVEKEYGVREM

## CC(C)CCC[C@@H](C)[C@H]1CC[C@H]2[C@@H]3CC=C4C[C@@H](OS(=O)(=O)O)CC[C@]4(C)[C@H]3CC[C@]12C [C3S, cholesterol 3-sulfate]
[1]
  infiltration of inflammatory cells into the conjunctiva in response to ragweed pollen: further inhibited
[2]; 6.25 μM
  migration of T cells in response to CCL21: inhibited to the level of T cells derived from DOCK2 knockout mouse
[2]; 12.5 μM, Experimental Example 6
  migration of T cells in response to CCL21: specifically inhibits the migration of T cells
[2]; predetermined concentrations, Experimental Example 5
  migration of T cells in response to CCL21: markedly inhibited
[3]
  migration of neutrophils towards fMLP source containing the compound: rapidly stop
[4]
  inhibition of binding of DOCK2 DHR-2 to GST-Rac (Western blotting): specifically inhibits the binding of DHR-2 to Rac
